Structures can show the parent of a compound that is named as a salt.
Assays:
[1] = immediate-release tablet, cited from earlier work
solubility in water = format: physicochemical

solubility in water (solubility in water): freely soluble in water
SMILES: COc1cc2nc(N(C)CCCNC(=O)C3CCCO3)nc(N)c2cc1OC (racemic) [alfuzosin hydrochloride, (R,S)-N-(3-(4-amino-6,7-dimethoxy-2-quinazolinyl)methylamino) propyl) tetrahydro-2-furancarboxamide hydrochloride]
Peak plasma concentrations reached after administration (time) [1]: ≤ 1 h
inter-individual fluctuations in plasma concentrations [1]: sevenfold
Terminal elimination half-life ([1]; range printed (1-10 h)): approximately 5 h
Bioavailability ([1]; range printed (45-90%)): 64%

Reference: patent US20060062846A1, “Alfuzosin tablets and synthesis” (Cimex Pharma AG, priority 2004, published 2006)
